Measurements as given in PubChem BioAssay (NCI).
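The compound was tested at five concentrations on cells cultured in 96-well plates, with a 48-hour exposure period. At the GI50, growth is halved. TGI: total growth inhibition.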

Tests used:
Assay in all cases: growth of human tumour cells (NCI), 48 h
MALME-3M melanoma = test system: MALME-3M melanoma
CCRF-CEM leukemia = test system: CCRF-CEM leukemia
HT29 colon = test system: HT29 colon
SK-OV-3 ovarian = test system: SK-OV-3 ovarian
UACC-62 melanoma = test system: UACC-62 melanoma
SK-MEL-2 melanoma = test system: SK-MEL-2 melanoma
NCI-H226 lung = test system: NCI-H226 lung
786-0 renal = test system: 786-0 renal
OVCAR-5 ovarian = test system: OVCAR-5 ovarian
PC-3 prostate = test system: PC-3 prostate

Compound	TGI (MALME-3M melanoma) [µM]	TGI (CCRF-CEM leukemia) [µM]	TGI (HT29 colon) [µM]	TGI (SK-OV-3 ovarian) [µM]	TGI (UACC-62 melanoma) [µM]	TGI (SK-MEL-2 melanoma) [µM]	TGI (NCI-H226 lung) [µM]	TGI (786-0 renal) [µM]	TGI (OVCAR-5 ovarian) [µM]	TGI (PC-3 prostate) [µM]	GI50 (PC-3 prostate) [µM]	GI50 (MALME-3M melanoma) [µM]	GI50 (CCRF-CEM leukemia) [µM]	GI50 (HT29 colon) [µM]	GI50 (SK-OV-3 ovarian) [µM]	GI50 (UACC-62 melanoma) [µM]	GI50 (SK-MEL-2 melanoma) [µM]	GI50 (786-0 renal) [µM]	GI50 (OVCAR-5 ovarian) [µM]	GI50 (NCI-H226 lung) [µM]
Cc1c2c(c(C)c3c1[nH]c1ccccc13)CN(C)CC2	30.3	> 100	36.3	70.1	31.9	31.1	56.5	29.6	> 100	–	–	–	–	–	–	–	–	–	–	–
O=C1OC(=O)C2C3C=CC(C12)C1C2C=CC2C31 (configuration not stated)	> 100	> 100	> 100	> 100	–	> 100	> 100	> 100	> 100	–	–	–	–	–	–	–	–	–	–	–
CCn1c2ccccc2c2c(-c3ccccc3)cc3c(c21)C(=O)N(c1ccccc1)C3=O	> 100	> 100	–	> 100	> 100	> 100	> 100	> 100	> 100	–	–	–	–	–	–	–	–	–	–	–
C/C(=N\NC(=S)N1CCCCCC1)c1cccc2cccnc12	> 61	> 100	19.1	> 81.5	6.53	> 100	–	> 86.9	> 100	> 100	–	–	–	–	–	–	–	–	–	–
NC(=O)NC1C(C(=O)O)N(Cc2ccccc2)C(=O)N1Cc1ccccc1 (configuration not stated)	> 100	> 100	> 100	> 100	> 100	> 100	> 100	> 100	> 100	–	–	–	–	–	–	–	–	–	–	–
COc1ccc(-c2c3c(nc4n[nH]c(-c5ccc(Cl)cc5)c24)-c2ccccc2C(=O)C3=O)cc1	2.81	> 100	3.4	3.23	3.85	3.3	–	4.59	4.79	3.71	1.22	0.75	2.55	1.87	1.68	1.59	1.56	2.01	2.15	–
CC(=O)c1ccc(NC(=O)COC(=O)c2cccc3c(=O)c4ccccc4[nH]c23)cc1	> 100	> 100	> 100	> 100	> 100	–	46.2	> 100	–	–	–	–	–	–	–	–	–	–	–	–
COc1c(N2CCN(CN3C(=O)C(=O)c4cc(Cl)ccc43)C(C)C2)c(F)cc2c(=O)c(C(=O)O)cn(C3CC3)c12 (configuration not stated)	–	–	> 100	–	65.3	> 100	> 100	> 100	> 100	> 100	10.8	–	–	30.9	–	20.6	> 100	> 100	85.9	71
Cc1nc2cc(Nc3ccccc3C(=O)O)ccc2s1	> 100	> 100	> 100	> 100	> 100	> 100	–	> 100	> 100	–	–	–	–	–	–	–	–	–	–	–
Cc1nc2cc(Nc3nc(Nc4ccc(F)cc4)nc(N4CCOCC4)n3)ccc2n1Cc1ccccc1	–	8.2	4.07	25.1	–	4.94	24.2	3.33	28.6	16.8	2.91	–	2.75	1.93	10.5	–	2.49	1.69	12.3	5.79
Cn1cc(C(=O)c2ccccc2)cc(C(=O)c2ccccc2)c1=O	> 100	> 100	> 100	> 100	> 100	> 100	> 100	> 100	> 100	–	–	–	–	–	–	–	–	–	–	–
O=C(/C=C(\C(=O)c1cccs1)c1cccs1)c1ccc(C(=O)/C=C(\C(=O)c2cccs2)c2cccs2)cc1	–	> 100	> 100	> 100	> 100	> 100	> 100	> 100	–	> 100	–	–	–	–	–	–	–	–	–	–
O=C1CN(c2cccc(Cl)c2)C(=O)CN1NCNN1CC(=O)N(c2cccc(Cl)c2)CC1=O	> 100	> 100	> 100	> 100	> 100	–	–	> 100	> 100	> 100	–	–	–	–	–	–	–	–	–	–
CCC(C)C(=O)OCC(=O)c1ccc(-c2ccccc2)cc1 (configuration not stated)	> 100	> 100	> 100	> 100	> 100	> 100	–	> 100	> 100	> 100	–	–	–	–	–	–	–	–	–	–
NC(Cc1ccc2nc3c4ccccc4c(=O)cc-3oc2c1)C(=O)O (configuration not stated)	36.8	> 100	> 100	> 100	> 100	> 100	–	> 100	> 100	> 100	–	–	–	–	–	–	–	–	–	–
CC(=O)NC1=NC(=O)/C(=C/c2ccc(/C=C3/C(=O)N=C(NC(C)=O)N3C)cc2)N1C	–	–	> 100	> 100	> 100	> 100	> 100	> 100	> 100	–	–	–	–	–	–	–	–	–	–	–
NC(=S)N1N=C2c3ccccc3CC[C@H]2[C@@H]1c1ccc(Cl)cc1	52.6	> 100	> 100	> 100	> 100	61.1	51.5	> 100	> 100	–	–	–	–	–	–	–	–	–	–	–
COc1ccc(NC(=O)CC(=O)n2nc(C)c(N=Nc3ccccc3C(=O)O)c2C)cc1	> 100	> 100	> 100	94.2	> 100	> 100	–	> 100	> 100	–	–	–	–	–	–	–	–	–	–	–
N#CC(C#N)=C/C=C(\Sc1ccc(F)cc1Cl)c1ccc(Cl)cc1	1.72	–	–	23.4	6.16	8.17	–	2.39	2.61	10.4	1.42	0.406	0.107	–	2.8	2.18	1.45	0.523	0.605	–
O=c1c2cc3c(cc2c2cccc4c2n1CCC4)OCO3	> 100	> 100	> 100	> 100	> 100	> 100	> 100	> 100	> 100	–	–	–	–	–	–	–	–	–	–	–
Cl.Fc1c[c-]c(-c2ccccn2)c(F)c1.[Pt].c1ccc([PH+](C[PH+](c2ccccc2)c2ccccc2)c2ccccc2)cc1	–	–	–	0.84	0.511	–	–	0.468	1.18	1.14	0.276	–	–	–	0.293	0.199	–	0.211	0.324	–

Compound	TGI (MALME-3M melanoma) [µM]	TGI (CCRF-CEM leukemia) [µM]	TGI (HT29 colon) [µM]	TGI (SK-OV-3 ovarian) [µM]	TGI (UACC-62 melanoma) [µM]	TGI (SK-MEL-2 melanoma) [µM]	TGI (NCI-H226 lung) [µM]	TGI (786-0 renal) [µM]	TGI (OVCAR-5 ovarian) [µM]	TGI (PC-3 prostate) [µM]	GI50 (PC-3 prostate) [µM]	GI50 (MALME-3M melanoma) [µM]	GI50 (CCRF-CEM leukemia) [µM]	GI50 (HT29 colon) [µM]	GI50 (SK-OV-3 ovarian) [µM]	GI50 (UACC-62 melanoma) [µM]	GI50 (SK-MEL-2 melanoma) [µM]	GI50 (786-0 renal) [µM]	GI50 (OVCAR-5 ovarian) [µM]	GI50 (NCI-H226 lung) [µM]
COc1ccc(C(=O)c2sc3nc(-c4cccs4)ccc3c2N)cc1OC	–	> 100	17.4	> 100	> 100	19.2	> 100	> 100	> 100	> 100	3.65	–	4.53	3.65	51.9	6.47	3.29	62.4	19.8	17.9
Cc1ccc(NC(=O)CCc2n[nH]c(=S)o2)cc1	> 100	> 100	> 100	–	> 100	–	> 100	> 100	> 100	–	–	–	–	–	–	–	–	–	–	–
N#CC1=C(O)NC(O)=C(C#N)C1c1ccc(C2C(C#N)=C(O)NC(O)=C2C#N)cc1	> 100	> 100	> 100	> 100	> 100	> 100	> 100	> 100	–	–	–	–	–	–	–	–	–	–	–	–
CCN1C(=NCCO)NS(=O)(=O)c2ccccc21	–	> 100	> 100	> 100	> 100	> 100	> 100	> 100	> 100	> 100	–	–	–	–	–	–	–	–	–	–
CN(C)c1cccc(F)c1C(=O)NC(=O)Nc1ccc(Cl)cc1	> 100	–	> 23.2	> 29.3	> 100	> 67.9	> 100	> 100	> 100	> 100	–	–	–	–	–	–	–	–	–	–
c1ccc(OCc2nnc3n2N=C(c2ccccc2)CS3)cc1	> 100	> 100	> 100	> 100	> 100	> 100	> 100	> 100	> 100	–	–	–	–	–	–	–	–	–	–	–
O=c1[nH]cnc2c(COCCO)c[nH]c12	> 100	> 100	> 100	> 100	> 100	> 100	> 100	> 100	> 100	–	–	–	–	–	–	–	–	–	–	–
OCCN(CCO)c1cccc(N(CCO)CCO)n1	–	> 100	–	> 100	> 100	> 100	–	> 100	–	–	–	–	–	–	–	–	–	–	–	–
CCCCNc1ccc(Nc2ccccc2)cc1	28.8	> 100	25.1	70.3	> 100	–	> 100	74.6	> 100	38.2	3.15	3.8	2.93	4.37	12.6	8.2	–	10.4	29	12.5
Cc1ccc(-n2nnnc2-c2cnc(N3CCOCC3)nc2-c2cccc(C(F)(F)F)c2)cc1	–	2.55	> 18.4	> 13.3	25.2	> 50	10.8	> 50	> 43.1	3.93	1.44	–	1.1	1.53	1.48	1.73	> 10.8	1.89	2.6	1.51
COc1cc(C(C)O)c[n+](CCC2CNc3ccccc32)c1 (configuration not stated)	> 100	> 100	> 100	–	> 100	> 100	> 100	> 100	–	–	–	–	–	–	–	–	–	–	–	–
CCn1c(CCl)nc2c1C(=O)c1ccccc1C2=O	2.41	–	3.47	2.38	3.14	–	0.473	> 100	3.25	4.53	–	–	–	–	–	–	–	–	–	–
COc1cccc(N2C(=O)C3C4C=C5c6ccccc6N(c6ccccc6)C5(C3C2=O)[C@H]2C(=O)N(c3cccc(OC)c3)C(=O)[C@@H]42)c1 (some centres not stated)	> 100	> 100	> 100	> 100	> 100	> 100	> 100	> 100	> 100	–	–	–	–	–	–	–	–	–	–	–
COc1ccc(NCC(=O)Nn2c(-c3ccccc3)nc3ccccc3c2=O)cc1	70.2	> 100	> 100	> 100	32.3	–	> 100	73.6	> 100	> 100	–	–	–	–	–	–	–	–	–	–
CN1CCN(c2nc(-c3csc(-c4cccs4)n3)cc3ccccc23)CC1	3.12	4.46	3.41	–	3.15	3.48	–	3.15	3.13	4.48	1.98	1.65	2	1.66	–	1.69	1.47	1.64	1.66	–
COC(=O)Cc1cc(=O)[nH]c2c1C(=O)CCC2	> 100	> 100	> 100	> 100	–	> 100	> 100	> 100	> 100	–	–	–	–	–	–	–	–	–	–	–
Cc1ccc(S(=O)(=O)N/N=C/C(C)C)cc1	> 100	> 100	> 100	> 100	> 100	> 100	–	> 100	> 100	–	–	–	–	–	–	–	–	–	–	–
N#Cc1cccc(C=NC23CC4CC(CC(C4)C2)C3)c1	> 100	> 100	> 100	> 100	> 100	> 100	> 100	> 100	> 100	–	–	–	–	–	–	–	–	–	–	–
O=[N+]([O-])c1cc2no[n+]([O-])c2cc1N1CCCCC1	–	> 100	3.86	27.4	33.8	30.5	> 100	2.62	24.8	5.68	–	–	–	–	–	–	–	–	–	–
COc1ccc(C(=O)C#Cc2c[nH]c(=O)[nH]c2=O)cc1	18.7	10.8	28	> 100	32.8	21.4	42.4	25	31	–	–	–	–	–	–	–	–	–	–	–
C=C(C(=C)P(=S)(C(C)C)C(C)C)P(=S)(C(C)C)C(C)C	> 100	> 100	> 100	> 100	> 100	–	> 100	> 100	> 100	–	–	–	–	–	–	–	–	–	–	–
